Test results taken from patent publication US20110118199A1, “USE OF CNS PENETRATING ANTICANCER COMPOUNDS FOR THE TREATMENT OF PROTOZOAL DISEASES” (priority 2006, published 2011).
≈ marks a conversion by molar mass, not a printed value. Where two headings read alike, the source gives them in different places.

Tests used:
[1] = tested on: Trypanosoma brucei rhodesiense (STIB 900 clone); experiment: Drug sensitivity assay (Alamar Blue, 72 h) against bloodstream form trypomastigotes in vitro; type: cell-based
Method: Bloodstream form trypomastigotes of the strains (a) and (c) are maintained in Minimal Essential Medium (MEM) with Earle's salts supplemented according to Baltz et al. (EMBO J. 4, 1273-1277, 1985) with 25 mM N-2-hydroxyethylpiperazine-N′-2-ethane-sulphonic acid (HEPES), 1 g/l additional glucose, 1% MEM non-essential amino acids (100×), 0.2 mM 2-mercaptoethanol, 2 mM sodium pyruvate, 0.1 mM hypoxanthine and 15% heat-inactivated horse serum.
All cultures and assays are conducted at 37° C. under an atmosphere of 5% CO2 in air.
Stock drug solutions are prepared in 100% dimethylsulphoxide (DMSO) (unless otherwise recommended by the supplier) at 10 mg/ml, and heated or sonicated if necessary to dissolve the sample. The stocks are kept at −20° C. For the assays, the compound is further diluted to the appropriate concentration using complete medium.
Assays are performed in 96-well microtiter plates, each well containing 100 μl of culture medium with 8×10^3 bloodstream forms with or without a serial drug dilution. The highest concentration of the test compounds is 90 μg/ml. Seven 3-fold drug dilutions are used, covering a range from 90 μg/ml to 0.123 μg/ml. Each drug is tested in duplicate. Active compounds are tested twice for confirmation. The final result is the mean of the four individual IC50 values. After 72 hrs of incubation, the plates are inspected under an inverted microscope to assure growth of the controls and sterile conditions.
Ten microliters of Alamar Blue (12.5 mg resazurin dissolved in 100 ml distilled water) are then added to each well and the plates are incubated for another 2 hours. The plates are read with a Spectramax Gemini XS microplate fluorometer (Molecular Devices Cooperation, Sunnyvale, Calif., USA) using an excitation wave length of 536 nm and an emission wave length of 588 nm. IC50 values are determined using the microplate reader software Softmax Pro (Molecular Devices Cooperation, Sunnyvale, Calif., USA).

[2] = tested on: Trypanosoma brucei rhodesiense (STIB 900 clone); experiment: Sleeping sickness acute mouse model, T. b. rhodesiense STIB900; type: in vivo, mice (NMRI)
Method: Sleeping Sickness: Acute Model—Trypanosome b. rhodesiense STIB900 Parasite and Animal Strains Trypanosoma brucei rhodesiense STIB900 is used for this model. Female mice (NMRI), weighing 20-25 g, are maintained at 22° C. and 70% relative humidity.
(§1) Standard drugs as positive controls are Melarsoprol (Arsobal®, Specia, France) and Diminazene aceturate (Berenil®, Hoechst, Germany). Stock solutions of all test items were prepared in DMSO.

[3] = tested on: Trypanosoma brucei brucei GVR 35; experiment: Sleeping sickness in vivo chronic CNS mouse model, T. b. brucei GVR 35; set-up: species or system mice (NMRI); conditions: 40 mg/kg single i.p. dose on day +21
Method: Sleeping Sickness: In Vivo Chronic CNS Model—Trypanosoma b. brucei GVR 35 Parasite and Animal Strains Trypanosoma brucei brucei GVR 35 which leads to a CNS infection by day 21 post-infection (Jennings and Gray, Contrib. Microbiol. Immunol. 7, 147-54, 1983) is used for this model.
Female mice (NMRI), weighing 20-25 g, are maintained at 22° C. and 70% relative humidity.
Infection: The bloodstream forms are from a stock of cryopreserved stabilates containing 10% glycerol. The stabilate is suspended in PSG (phosphate-saline-glucose) 6:4 (Lanham & Godfrey, Exp. Parasitol. 28, 521-534, 1970) to obtain a trypanosome concentration of 8×10^4/ml. Each mouse is intraperitoneally injected with 0.25 ml inoculum (equivalent to 2×10^4 trypanosomes) on day 0.
Experimental groups and control groups each consist of 5 mice.
Evaluation endpoint: On day +28 and then twice a week until day +50 parasitaemia of all animals is checked by tail blood examination and recorded based on a subjective scale ranging from (+)=1 trypanosome/20 fields to +++=>100 trypanosomes/field with a 20× objective. After day +50 the mice are checked only once per week until day +180. For mice dying before day +180 the day of death is recorded. At day +180, surviving and aparasitaemic mice are considered cured and then euthanized. […]

[4] = patients treated for African trypanomiasis; cited from earlier work
[5] = tested on: Trypanosoma brucei brucei STIB795; experiment: Sleeping sickness acute mouse model, T. b. brucei STIB795; type: in vivo, mice (NMRI); conditions: ip injection, four consecutive days, daily doses of 50 mg/kg; T. b. brucei STIB795 infected mice
Method: Trypanosoma brucei brucei STIB795 is used for this model. Female mice (NMRI), weighing 20-25 g, are maintained at 22° C. and 70% relative humidity.
as §1

[6] = T. b. rhodesiense STIB 900, in vitro, 72 h incubation, Alamar Blue, read-out: IC50
[7] = 4 × 20 mg/kg p.o., determined on day 18

For O=NN(CCCl)C(=O)NCCCl [Carmustine], the IC50 [1, 6] was 2.18 µg/mL (≈ 10.2 µM).

In the case of CN(C)/N=N/c1[nH]cnc1C(N)=O [Dacarbazine], the IC50 [1, 6] is reported as 19.7 µg/mL (≈ 108 µM), the “MSD (mean survival days)” value [2, 7] is reported as 16 days and the “MSD (mean survival days)” value ([2]; 4 × 50 mg/kg p.o., determined on day 18) is reported as >18 days.

For N=C(N)c1ccc(/N=N/Nc2ccc(C(=N)N)cc2)cc1 [Diminazene diaceturate], the “course of parasitaemia and death (negative control)” value [3] was “all mice clear parasitaemia but relapse before day +40 and die between day +50 and day +60”.

In the case of CC(=O)O[C@@]12CO[C@@H]1C[C@H](O)[C@@]1(C)C(=O)[C@H](O)C3=C(C)[C@@H](OC(=O)[C@H](O)[C@@H](NC(=O)OC(C)(C)C)c4ccccc4)C[C@@](O)([C@@H](OC(=O)c4ccccc4)[C@H]21)C3(C)C [Docetaxel], the IC50 [1, 6] is reported as 0.006 µg/mL (≈ 0.00743 µM).

COc1cccc2c1C(=O)c1c(O)c3c(c(O)c1C2=O)C[C@@](O)(C(=O)CO)C[C@@H]3O[C@H]1C[C@H](N)[C@H](O)[C@H](C)O1 [Doxorubicin] gave an IC50 [1, 6] of 0.015 µg/mL (≈ 0.0276 µM).

C[C@]12CC[C@@H]3c4ccc(OC(=O)N(CCCl)CCCl)cc4CC[C@H]3[C@@H]1CC[C@@H]2O [Estramustine] gave an IC50 ([1]; 72 h) of 41.5 µg/mL (≈ 94.2 µM).

For Nc1nc(N)nc(Nc2ccc([As]3SCC(CO)S3)cc2)n1 (stereo not drawn) [Melarsoprol], the “often fatal reactive encephalopathy, share of treated patients” value [4] is given as “up to 10%”.

With CC(=O)O[C@H]1C(=O)[C@@]2(C)[C@H]([C@H](OC(=O)c3ccccc3)[C@]3(O)C[C@H](OC(=O)[C@H](O)[C@@H](NC(=O)c4ccccc4)c4ccccc4)C(C)=C1C3(C)C)[C@]1(OC(C)=O)CO[C@@H]1C[C@@H]2O [Paclitaxel] the IC50 [1, 6] was 0.01 µg/mL (≈ 0.0117 µM).

With Cn1nnc2c(C(N)=O)ncn2c1=O [Temozolomide] the IC50 [1, 6] was 27.7 µg/mL (≈ 143 µM), the cure rate [5] was 100% and the “MSD (mean survival days)” value [2, 7] was >18 days. The Cured/Infected ([2]; 4 × 50 mg/kg i.p.) was 3/4, the “MSD (mean survival days)” value ([2]; 4 × 50 mg/kg i.p.) was >51.5 days and the Cured/Infected ([2]; 4 × 50 mg/kg p.o.) was 4/4. The “MSD (mean survival days)” value ([2]; 4 × 50 mg/kg p.o.) was >60 days.

Compound CC[C@]1(O)C[C@@H]2CN(CCc3c([nH]c4ccccc34)[C@@](C(=O)OC)(c3cc4c(cc3OC)N(C)[C@H]3[C@@](O)(C(=O)OC)[C@H](OC(C)=O)[C@]5(CC)C=CCN6CC[C@]43[C@@H]65)C2)C1 [Vinblastine] has an IC50 [1, 6] of 0.13 µg/mL (≈ 0.16 µM).
